Data: patent US11773379B2, “Enzymes and reagents for measurement of short chain fatty acids” (SYSMEX CORPORATION, priority 2018, dated 2023)

Experiments:
[1] = test system: BKII (recombinant butyrate kinase derived from Acetoanaerobium sticklandii); assay: Substrate specificity of butyrate kinase BKII; assay type: biochemical; conditions: 100 mM sodium salt of fatty acid in second reagent, pH 7.5
Experimental: (§1) Various fatty acids shown in Table 1 were used as a substrate. The measurement was performed using a 7180 type Hitachi automatic analyzer (Hitachi High-Tech Corporation). […] PHARMA CORPORATION) • 5 U/mL ADP-HK II (ADP dependent hexokinase: […] PHARMA CORPORATION) […] In the composition of the second reagent, “sodium salts of various fatty acids” means any one kind of sodium caprylate, sodium caproate, sodium valerate, sodium isovalerate, sodium butyrate, sodium isobutyrate, sodium propionate, sodium acetate, sodium lactate, and sodium succinate. Isobutyric acid, valeric acid, isovaleric acid, caproic acid, and octanoic acid, which are commercially available fatty acids and are not sold as sodium salts, were adjusted to pH 7.5 with sodium hydroxide. […] [Measurement Parameters of Automatic Analyzer] • Analysis method: […]

[2] = test system: BKIII (recombinant butyrate kinase derived from Thermosediminibacter oceani); assay: Substrate specificity of butyrate kinase BKIII; assay type: biochemical; conditions: 100 mM sodium salt of fatty acid in second reagent, pH 7.5
Experimental: as §1

[3] = Thermal stability of recombinant butyrate kinase (remaining activity); assay type: physicochemical; conditions: for remaining activity: after incubating at 65° C. for 30 minutes, 50 mM potassium phosphate pH 7, 0.1% TN-100, about 1 mg/mL
Experimental: The thermal stability of BKII was examined based on the remaining activity after incubating approximately 0.3 mg/mL BKII at each temperature of 4 to 50° C. for 30 minutes in 10 mM Tris-HCl buffer (pH 7.5) containing 100 mM KCl. The thermal stability of BKIII was examined based on the remaining activity after incubating approximately 1 mg/mL BKIII in 50 mM potassium phosphate buffer (pH 7) containing 0.1% TN-100 (ADEKA Corporation) at each temperature of 4 to 80° C. for 30 minutes. The remaining activity was measured in the same manner as in Example 1. From FIGS. 12 and 13, the thermal stability (remaining activity) of BKII was 50% or more after treatment at 37° C. for 30 minutes, and the thermal stability (remaining activity) of BKIII was 85% or more after treatment at 70° C. for 30 minutes.
The thermal stability of BKIII, Thermosediminibacter oceani-derived butyrate kinase (ToBK2) prepared in Reference Example 4, Natranaerobius thermophilus-derived butyrate kinase (NtBK) prepared in Reference Example 5, and Symbiobacterium thermophilum-derived butyrate kinase (StBK) prepared in Reference Example 6 were compared. Specifically, each butyrate kinase was added to a 50 mM potassium phosphate buffer (pH 7) containing 0.1% TN-100 so that the concentration is about 1 mg/mL, and the remaining activity after incubating at 65° C. for 30 minutes was measured. The remaining activity was measured in the same manner as in Example 1.

[4] = Measurement of recombinant butyrate kinase activity (ADP-HK/G6PDH coupled, NADPH at 340 nm); specific activity, Km and Vmax; assay type: biochemical; conditions: with respect to butyric acid
Experimental: The enzymatic activity of BKII and BKIII with respect to butyric acid was measured based on the amount of ADP produced. In the Example 1, ADP produced by the action of butyrate kinase is used to produce NADPH by the action of ADP dependent hexokinase and glucose-6-phosphate dehydrogenase (see FIG. 1), and the amount of ADP produced was measured based on the change in absorbance at 340 nm due to the increase in NADPH. The measurement was performed using a 7080 type Hitachi automatic analyzer (Hitachi High-Tech Corporation).
[Composition of First Reagent] • 50 mM Tris-HCl (pH 7.5) (Sigma-Aldrich Co. LLC.) • 2 mM ATP (pH 7.5) (Oriental Yeast Co., Ltd.) • 2 mM MgCl2 (FUJIFILM Wako Pure Chemical Corporation) • 20 mM glucose (FUJIFILM Wako Pure Chemical Corporation) • 100 mM sodium butyrate (FUJIFILM Wako Pure Chemical Corporation) • 1 mM NADP (FUJIFILM Wako Pure Chemical Corporation) • 5 U/mL G6PDH II (Glucose-6-phosphate dehydrogenase: T-51, ASAHI KASEI PHARMA CORPORATION) • 5 U/mL ADP-HK II (ADP dependent hexokinase: T-92, ASAHI KASEI PHARMA CORPORATION) • 0.1% TN-100 (ADEKA Corporation)
[Composition of BKII Diluent] • 50 mM Tris-HCl (pH 7.5) (Sigma-Aldrich Co. LLC.) • 10 mM KCl (FUJIFILM Wako Pure Chemical Corporation)
[Composition of BKIII Diluent] • 50 mM Potassium phosphate buffer (pH 7.0) (Sigma-Aldrich Co. LLC.) • 0.1% TN-100 (ADEKA Corporation)
[Measurement Parameters of Automatic Analyzer] • Analysis method: Rate-A • Measurement wavelength (secondary/primary): 700 nm/340 nm • Reaction time: 5 minutes • Photometry point: 11 to 16 • Sample volume: 3 μL • First reagent amount: 150 μL […]
The sample was dispensed into a cuvette, then the first reagent was added and stirred. […] The cuvette was irradiated with light and the change in absorption at 340 nm was measured between about 200 seconds and about 296 seconds after the addition of the first reagent. […] The activity value (U/mL) of butyrate kinase was calculated from the following formula by defining the amount of enzyme that phosphorylates 1 μmol of butyric acid per minute as 1 U and using the value of the absorbance change per minute (ΔmAbs/min) calculated from the absorbance at the photometry point and the millimole extinction coefficient (c=6.3) of […] at 340 nm. […]
The specific activity (U/mg) is the activity value per 1 mg of enzyme. The protein (enzyme) concentrations of the BKII solution obtained in Reference Example 1 and the BKIII solution obtained in Reference Example 3 were quantified by the Bradford method, and the specific activities of BKII and BKIII with respect to butyric acid under the measurement conditions of Example 1 were calculated. […]
The Km and Vmax of BKII and BKIII with respect to butyric acid under the measurement conditions of Example 1 were determined by Lineweaver-Burk plot.

CCCCCC(=O)O [Caproic acid]
substrate specificity, relative value when the activity value with respect to butyric acid is 100 [1]: 22%
substrate specificity, relative value when the activity value with respect to butyric acid is 100 [2]: 56%

CC(C)CC(=O)O [Isovaleric acid]
substrate specificity, relative value when the activity value with respect to butyric acid is 100 [1]: 133%
substrate specificity, relative value when the activity value with respect to butyric acid is 100 [2]: 148%

CC(O)C(=O)O (stereo not shown) [Lactic acid]
substrate specificity, relative value when the activity value with respect to butyric acid is 100 [1]: 0%
substrate specificity, relative value when the activity value with respect to butyric acid is 100 [2]: 0%

CCCCCCCC(=O)O [Octanoic acid]
substrate specificity, relative value when the activity value with respect to butyric acid is 100 [1]: 0%
substrate specificity, relative value when the activity value with respect to butyric acid is 100 [2]: 0%

CCC(=O)O [Propionic acid]
substrate specificity, relative value when the activity value with respect to butyric acid is 100 [1]: 62%
substrate specificity, relative value when the activity value with respect to butyric acid is 100 [2]: 41%

O=C(O)CCC(=O)O [Succinic acid]
substrate specificity, relative value when the activity value with respect to butyric acid is 100 [1]: 2%
substrate specificity, relative value when the activity value with respect to butyric acid is 100 [2]: 0%

CCCCC(=O)O [Valeric acid]
substrate specificity, relative value when the activity value with respect to butyric acid is 100 [1]: 161%
substrate specificity, relative value when the activity value with respect to butyric acid is 100 [2]: 138%

B1: NtBK: Natranaerobius thermophilus-derived butyrate kinase prepared in Reference Example 5 (SEQ ID NO: 23, His tag) (protein)
chain: MKQEHRLLVINPGSTSTKIAVYEGESPLIEKKLEHSPEELNKFQDIIDQYDFRKDSILNFLDEQGMNFNKLDAVVARGGLLKPISGGTFKVNDLMVEHLRQGYQGEHASNLGGIIAKEISNQLDIPAYIVDPVVVDELQDIARISGFEPIERKSIFHALNHKAVARKAAAQLGKKYEEANLVVVHLGGGISVGAHNCGDVIDVNNALDGEGPFSPERSGGLPNGDLVRYIDEHNLTWKELKRQLVGNGGLVSYLDTNDGKKVQEMIQSGDEKAEKVYEAMIYQIAKEIGSCAVVLKGELDAIVLTGGLAHDEYLVSRMKEYIKFLGEILVFPGEDEMQSLAEGGLRVLRNEETPKDYS
modifications: His tag; Natranaerobius thermophiles
remaining activity [3]: 14.7%

B2: BKII: recombinant butyrate kinase derived from Acetoanaerobium sticklandii obtained in Reference Example 1 (T7 tag and His tag; SEQ ID NO: 17) (protein, listed as Acetoanaerobium sticklandii)
chain: MEGTMSTYKILAINPGSTSTKIAVYENETQIMEKTLRHSTEEINKYEKIFDQFEFRKNVIVDAVSEAGIAIEELDAVVGRGGLLKPIKGGTYEVSDELIAGLKEPYLGEHASNLGGIIAKEIADAALAPSFIVDPVVVDEMNDVARISGMPEIPRFSIFHALNQKATARRFASEIGKSYEDINVIVAHMGGGVSVGAHEKGRVIDVNNALDGEGPFSPERAGGLPVGDLAKLCFSGKYTHAQIKKLLKGEGGIVAYLGTNDARDVEKMIAEGDEKAKLIYEAMAYQVAKEIGSCATVLKGKVDAIILTGGIAYSEMITTWIKERVSFIADVKIYAGEDEMSALAQGALRVLREEEKPQRYEA
modifications: T7 tag and His tag
thermal stability (remaining activity) ([3]; after treatment at 37° C. for 30 minutes, 10 mM Tris-HCl pH 7.5, 100 mM KCl): ≥ 50%
activity value of butyrate kinase ([4]; enzyme solution, 37° C., Tris-HCl pH 7.5): about 340 U/mL
Km ([4]; Lineweaver-Burk plot): 4.2 mM
Vmax ([4]; Lineweaver-Burk plot): 1100 U/mg
specific activity ([4]; measurement conditions of Example 1, protein by Bradford method): about 337 U/mg

B3: ToBK2: Thermosediminibacter oceani-derived butyrate kinase prepared in Reference Example 4 (SEQ ID NO: 21, His tag) (protein, listed as Thermosediminibacter oceani)
chain: MEKFRILAINPGSTSTKISIFHGEEEVFTENIVHDYEELKKFKNVIEQEGYRYEAILNALAARGYSLDEIDVVVARGGILRPVKAGTYRINDLMLEDLKDAVAGEHASNVAAFIAHRIGAEKGIPAYIVDPVSVDEMEDVARISGLDGIERKSLSHALNIRRVIYKVSEKFGKDPGELNFIVAHLGGGISIGAIRRGQMVDVESANCEGPFSPERSGGLPILELIDLCFSGRFTKDELKRRLIQEGGVYSYLGTKDIREVEERTRSGDKKAALILEAMVYQIAKCIGQMATVLKGDVDFIILTGGIAKSDYISECIADRVKFIAPVERVPGEEEMKALAEAACRVMTGREKVLDYGGGE
modifications: His tag
remaining activity [3]: 60.5%

B4: StBK: Symbiobacterium thermophilum-derived butyrate kinase prepared in Reference Example 6 (SEQ ID NO: 25, His tag) (protein, listed as Symbiobacterium thermophilum)
chain: MQQRLLIINPGSTSTKIAVYDDDSPLFAETLRHSAADLACFRDVAAQFPFRRDLILEALDAHGVSLSSLTAVVGRGGLLRPVRGGTYRVDAAMLAELSRAAHGEHASNLGALLAHEIAQAAGGVPAFIVDPVVVDELEPVARLTGLPEMPRRSVFHALNQKAVARRAAADLGRAYTEVNLVVVHLGGGISVGAHRRGRVVDVNNALDGEGPMAPERAGTVPSLGLVHLAFSWQHTLREVGRMLVGRGGLVAHVGTNDARRVEERIAAGDEAARVAYRAMAYQVAKEVGRAAVALGGQVDRIVLTGGLAHSEMLTGWIAEQVEWIAPVAVYPGEDEMAALAAGALRVLRGEEPAQVYGEAGE
modifications: His tag
remaining activity [3]: 48.7%
